From publication PMC5311937, “In Vitro Characterization and Concerted Function of Three Core Enzymes of a Glycyl Radical Enzyme - Associated Bacterial Microcompartment” (Scientific Reports, 2017)
One block for each compound: values may come before it.

Assays:
[1] = target: T1, AldDH (acylating aldehyde dehydrogenase, PduP) (Rhodopseudomonas palustris, UniProt Q21A49); assay: X-ray crystal structure, […] Å; type: binding; conditions: active site; propionyl-CoA or CoA fitted; pH 4.8; also in one site of 5JFN, where Cys330 is S-propionylated (covalent)
T1 construct: gene RPC_1174; N-terminal encapsulation peptide kept
T1 sequence (Q21A49 entry or part of it): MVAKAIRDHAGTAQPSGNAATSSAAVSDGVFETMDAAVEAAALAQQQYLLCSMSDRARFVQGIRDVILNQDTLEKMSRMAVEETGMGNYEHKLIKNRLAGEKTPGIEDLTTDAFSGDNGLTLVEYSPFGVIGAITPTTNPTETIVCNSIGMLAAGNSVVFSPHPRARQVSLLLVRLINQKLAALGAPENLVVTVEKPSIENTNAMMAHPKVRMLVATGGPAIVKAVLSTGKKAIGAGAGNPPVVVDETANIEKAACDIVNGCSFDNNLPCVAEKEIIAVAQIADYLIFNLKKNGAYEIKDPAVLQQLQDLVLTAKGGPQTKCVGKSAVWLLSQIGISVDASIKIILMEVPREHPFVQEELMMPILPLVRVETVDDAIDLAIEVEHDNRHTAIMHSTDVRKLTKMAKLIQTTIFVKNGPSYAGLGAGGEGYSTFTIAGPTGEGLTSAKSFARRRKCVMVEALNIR

[2] = target: T1, AldDH (acylating aldehyde dehydrogenase, PduP); assay: NAD+ reduction monitored at […] nm; type: biochemical; conditions: 5 mM NAD+, 0.5 mM CoA, 200 mM MOPS/KOH pH 7.5; kcat per tetrameric enzyme; read-out: apparent KM
[3] = target: acylating aldehyde dehydrogenase (AldDH) from Rhodopseudomonas palustris BisB18, Strep-tagged (Rhodopseudomonas palustris BisB18); assay: SEC; gel filtration on HiLoad 16/600 Superdex 200 pg, 20 mM MOPS/KOH pH 7.5, 50 mM KCl
[4] = target: acylating aldehyde dehydrogenase (AldDH) from Rhodopseudomonas palustris BisB18, Strep-tagged (Rhodopseudomonas palustris BisB18); assay: crystal structure; AldDH co-crystallised with propionyl-CoA at pH 8.1, space group P 2_(1), 1.9 Å; CoA and S-propionylcysteine in the active sites
[5] = target: acylating aldehyde dehydrogenase (AldDH) from Rhodopseudomonas palustris BisB18, Strep-tagged (Rhodopseudomonas palustris BisB18); assay: crystal structure; AldDH co-crystallised with propionyl-CoA at pH 4.8, space group P 1, 2.5 Å
[6] = target: acylating aldehyde dehydrogenase (AldDH) from Rhodopseudomonas palustris BisB18, Strep-tagged (Rhodopseudomonas palustris BisB18); assay: crystal structure; AldDH co-crystallised with NAD+ at pH 4.8, space group P2_(1), 2.3 Å, twinned
[7] = target: T1, AldDH (acylating aldehyde dehydrogenase, PduP); assay: X-ray crystal structure, […] Å; type: binding; conditions: active site; pH 4.8, 5 mM NAD+
[8] = target: T1, AldDH (acylating aldehyde dehydrogenase, PduP); assay: X-ray crystal structure, […] Å; type: binding; conditions: active site, acylated enzyme (Cys330 S-propionylated from propionyl-CoA); crystals at pH 8.1

Compound: CCC(=O)SCCNC(=O)CCNC(=O)[C@H](O)C(C)(C)COP(=O)(O)OP(=O)(O)OC[C@H]1O[C@@H](n2cnc3c(N)ncnc32)[C@H](O)[C@@H]1OP(=O)(O)O [propionyl-CoA]
X-ray crystal structure, 2.52 Å [1]: we found electron density that allowed the fitting of either propionyl-CoA or CoA

Km [2]: 1200 ± 170 µM
Compound: CCC=O [propionaldehyde]

stoichiometry N [3]: 4
stoichiometry N [4]: 4
stoichiometry N [5]: 4
stoichiometry N [6]: 4
Compound: acylating aldehyde dehydrogenase (AldDH) from Rhodopseudomonas palustris BisB18, Strep-tagged (enzyme)

Compound: NC(=O)c1ccc[n+]([C@@H]2O[C@H](COP(=O)(O)OP(=O)(O)OC[C@H]3O[C@@H](n4cnc5c(N)ncnc54)[C@H](O)[C@@H]3O)[C@@H](O)[C@H]2O)c1 [NAD^+]
X-ray crystal structure, 2.30 Å [7]: Electron density in the active sites allowed the fitting of NAD^+

Compound: CC(C)(COP(=O)(O)OP(=O)(O)OC[C@H]1O[C@@H](n2cnc3c(N)ncnc32)[C@H](O)[C@@H]1OP(=O)(O)O)[C@@H](O)C(=O)NCCC(=O)NCCS [CoA]
X-ray crystal structure, 1.90 Å [8]: In three of the four active sites of the tetramer we also found coenzyme A bound
